{"source": "PubChem BioAssay (NCI)", "assay_in_all_cases": "inhibition of tumour cell growth, NCI panel, 48 h", "key": {"786-0 renal": {"system": "786-0 renal"}, "A498 renal": {"system": "A498 renal"}, "A549 NSCLC": {"system": "A549 NSCLC"}, "ACHN renal": {"system": "ACHN renal"}, "BT-549 breast": {"system": "BT-549 breast"}, "CAKI-1 renal": {"system": "CAKI-1 renal"}, "CCRF-CEM leukemia": {"system": "CCRF-CEM leukemia"}, "COLO 205 colon": {"system": "COLO 205 colon"}, "DU-145 prostate": {"system": "DU-145 prostate"}, "EKVX NSCLC": {"system": "EKVX NSCLC"}, "HCC-2998 colon": {"system": "HCC-2998 colon"}, "HCT-15 colon": {"system": "HCT-15 colon"}, "HL-60(TB) leukemia": {"system": "HL-60(TB) leukemia"}, "HOP-62 NSCLC": {"system": "HOP-62 NSCLC"}, "HOP-92 NSCLC": {"system": "HOP-92 NSCLC"}, "HS 578T breast": {"system": "HS 578T breast"}, "HT29 colon": {"system": "HT29 colon"}, "IGROV1 ovarian": {"system": "IGROV1 ovarian"}, "K-562 leukemia": {"system": "K-562 leukemia"}, "KM12 colon": {"system": "KM12 colon"}, "LOX IMVI melanoma": {"system": "LOX IMVI melanoma"}, "M14 melanoma": {"system": "M14 melanoma"}, "MALME-3M melanoma": {"system": "MALME-3M melanoma"}, "MCF7 breast": {"system": "MCF7 breast"}, "MDA-MB-231 breast": {"system": "MDA-MB-231 breast"}, "MDA-MB-435": {"system": "MDA-MB-435"}, "MOLT-4 leukemia": {"system": "MOLT-4 leukemia"}, "NCI-H226 lung": {"system": "NCI-H226 lung"}}, "note": "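These data come from cells grown in 96-well plates and exposed to compound for 48 hours at five concentrations. Abbreviation: GI50, concentration required for 50% inhibition of growth. Definition used: TGI = concentration required for complete inhibition of growth.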"}
{"smiles": "Clc1nc(Cl)c2ncn(C/C=C\\COc3cccc(OC/C=C\\Cn4cnc5c(Cl)nc(Cl)nc54)c3)c2n1", "values": [{"measurement": "GI50", "setting": "786-0 renal", "value": "> 100", "unit": "µM"}, {"measurement": "TGI", "setting": "786-0 renal", "value": "> 100", "unit": "µM"}, {"measurement": "GI50", "setting": "A498 renal", "value": "> 100", "unit": "µM"}, {"measurement": "TGI", "setting": "A498 renal", "value": "> 100", "unit": "µM"}, {"measurement": "GI50", "setting": "A549 NSCLC", "value": "> 100", "unit": "µM"}, {"measurement": "TGI", "setting": "A549 NSCLC", "value": "> 100", "unit": "µM"}, {"measurement": "GI50", "setting": "ACHN renal", "value": "> 100", "unit": "µM"}, {"measurement": "TGI", "setting": "ACHN renal", "value": "> 100", "unit": "µM"}, {"measurement": "GI50", "setting": "BT-549 breast", "value": "> 100", "unit": "µM"}, {"measurement": "TGI", "setting": "BT-549 breast", "value": "> 100", "unit": "µM"}, {"measurement": "GI50", "setting": "CAKI-1 renal", "value": "> 100", "unit": "µM"}, {"measurement": "TGI", "setting": "CAKI-1 renal", "value": "> 100", "unit": "µM"}, {"measurement": "GI50", "setting": "CCRF-CEM leukemia", "value": 95.8, "unit": "µM"}, {"measurement": "TGI", "setting": "CCRF-CEM leukemia", "value": "> 100", "unit": "µM"}, {"measurement": "GI50", "setting": "COLO 205 colon", "value": "> 100", "unit": "µM"}, {"measurement": "TGI", "setting": "COLO 205 colon", "value": "> 100", "unit": "µM"}, {"measurement": "GI50", "setting": "DU-145 prostate", "value": "> 100", "unit": "µM"}, {"measurement": "TGI", "setting": "DU-145 prostate", "value": "> 100", "unit": "µM"}, {"measurement": "GI50", "setting": "EKVX NSCLC", "value": "> 100", "unit": "µM"}, {"measurement": "TGI", "setting": "EKVX NSCLC", "value": "> 100", "unit": "µM"}, {"measurement": "GI50", "setting": "HCC-2998 colon", "value": "> 100", "unit": "µM"}, {"measurement": "TGI", "setting": "HCC-2998 colon", "value": "> 100", "unit": "µM"}, {"measurement": "GI50", "setting": "HCT-15 colon", "value": "> 100", "unit": "µM"}, {"measurement": "TGI", "setting": "HCT-15 colon", "value": "> 100", "unit": "µM"}, {"measurement": "GI50", "setting": "HL-60(TB) leukemia", "value": "> 100", "unit": "µM"}, {"measurement": "TGI", "setting": "HL-60(TB) leukemia", "value": "> 100", "unit": "µM"}, {"measurement": "GI50", "setting": "HOP-62 NSCLC", "value": "> 100", "unit": "µM"}, {"measurement": "TGI", "setting": "HOP-62 NSCLC", "value": "> 100", "unit": "µM"}, {"measurement": "GI50", "setting": "HOP-92 NSCLC", "value": "> 100", "unit": "µM"}, {"measurement": "TGI", "setting": "HOP-92 NSCLC", "value": "> 100", "unit": "µM"}, {"measurement": "GI50", "setting": "HS 578T breast", "value": "> 100", "unit": "µM"}, {"measurement": "TGI", "setting": "HS 578T breast", "value": "> 100", "unit": "µM"}, {"measurement": "GI50", "setting": "HT29 colon", "value": "> 100", "unit": "µM"}, {"measurement": "TGI", "setting": "HT29 colon", "value": "> 100", "unit": "µM"}, {"measurement": "GI50", "setting": "IGROV1 ovarian", "value": "> 100", "unit": "µM"}, {"measurement": "TGI", "setting": "IGROV1 ovarian", "value": "> 100", "unit": "µM"}, {"measurement": "GI50", "setting": "K-562 leukemia", "value": 53.8, "unit": "µM"}, {"measurement": "TGI", "setting": "K-562 leukemia", "value": "> 100", "unit": "µM"}, {"measurement": "GI50", "setting": "KM12 colon", "value": "> 100", "unit": "µM"}, {"measurement": "TGI", "setting": "KM12 colon", "value": "> 100", "unit": "µM"}, {"measurement": "GI50", "setting": "LOX IMVI melanoma", "value": 19.3, "unit": "µM"}, {"measurement": "TGI", "setting": "LOX IMVI melanoma", "value": 43.8, "unit": "µM"}, {"measurement": "GI50", "setting": "M14 melanoma", "value": "> 100", "unit": "µM"}, {"measurement": "TGI", "setting": "M14 melanoma", "value": "> 100", "unit": "µM"}, {"measurement": "GI50", "setting": "MALME-3M melanoma", "value": "> 100", "unit": "µM"}, {"measurement": "TGI", "setting": "MALME-3M melanoma", "value": "> 100", "unit": "µM"}, {"measurement": "GI50", "setting": "MCF7 breast", "value": "> 100", "unit": "µM"}, {"measurement": "TGI", "setting": "MCF7 breast", "value": "> 100", "unit": "µM"}, {"measurement": "GI50", "setting": "MDA-MB-231 breast", "value": "> 100", "unit": "µM"}, {"measurement": "TGI", "setting": "MDA-MB-231 breast", "value": "> 100", "unit": "µM"}, {"measurement": "GI50", "setting": "MDA-MB-435", "value": "> 100", "unit": "µM"}, {"measurement": "TGI", "setting": "MDA-MB-435", "value": "> 100", "unit": "µM"}, {"measurement": "GI50", "setting": "MOLT-4 leukemia", "value": "> 100", "unit": "µM"}, {"measurement": "TGI", "setting": "MOLT-4 leukemia", "value": "> 100", "unit": "µM"}, {"measurement": "GI50", "setting": "NCI-H226 lung", "value": 43.3, "unit": "µM"}, {"measurement": "TGI", "setting": "NCI-H226 lung", "value": "> 100", "unit": "µM"}]}
